{"source": "patent US6693217B2", "about": "“Antimalarial N,N′-substituted biguanides derived from hydroxylamines” (Jacobus Pharmaceutical Co., Inc., priority 2001, dated 2004)", "key": {"[1]": {"assay": "Toxicity: testis weight/body weight after 106 days of drug treated feed", "settings": "for Mean values for testes: Left, % body wt / Mean values for testes: Right, % body wt.: male CD-1 mice, 8-mice groups, drug treated feed 106 days (300 ppm first 79 days, 600 ppm days 80-106); for Mean values for testes: Left, % body wt: control 0.30; for Mean values for testes: Right, % body wt.: control 0.31; for Testis damage / observable pathology: organs examined for pathology after 106 days of drug treated feed; for Decrease in testis weight/body weight: after 106 days of drug treated feed", "description": "Male CD-1 mice were fed drug treated feed for 106 days. For the first 79 days the drug level was 300 ppm and then 600 ppm for days 80-106. The animals were then sacrificed and the organs were both weighed and examined for pathology."}, "[2]": {"tested_on": "drug-resistant clones of P. falciparum", "settings": "cited from earlier work; for In vitro activity relative to comparator: drug-resistant clones of P. falciparum"}, "Plasmodium berghei": {"tested_on": "Plasmodium berghei", "assay": "Comparison of antimalarial activity of analogs of PS-15 in infected mice (Table III)", "assay_type": "in vivo", "settings": "orally bid on days 3, 4, 5 in HEC Tween, infection control 08.0", "description": "Mice were infected with Plasmodium berghei on day 0 and the drugs were mixed in HEC Tween and given orally bid on days 3, 4, and 5 post infection. Blood films were taken on day 6 and twice weekly thereafter until day 30."}, "[3]": {"tested_on": "multidrug-resistant P. falciparum", "settings": "administered orally to Aotus monkeys; cited from earlier work"}, "[4]": {"settings": "cited from earlier work"}, "[5]": {"tested_on": "Plasmodium berghei (KBG-173 strain)", "assay": "In vivo antimalarial activity, modified Thompson Test (Table II)", "set-up": "species or system Charles River CD-1 mice", "settings": "bid on days 3, 4, 5; for Average days Survival: 31 day experiment; for 6 day Parasetemia: % of red blood cells infected", "description": "In vivo^1 antimalarial activity was tested in male or female Charles River CD-1 mice that were 4-5 weeks old and weighed 20-25 g. They were housed in groups of 3 or 4 in standard plastic cages with wire tops, bed-o-cob® bedding, 12 hr/day of light, and maintained at 75° F. They were fed a standard Ralston Purina mouse chow and the cages and water bottles were changed twice a week. Test compounds were ground in a mortar and pestle and diluted with enough vehicle to give a volume of 10 mL/kg of mouse weight. The oral doses were prepared in 0.5% hydroxyethylcellulose-0.1% Tween-80. The amount of drug was calculated on the free base weight. The mice were infected intraperitoneally on day 0 with 5×10^4 erythrocytes parasitized with Plasmodium berghei (KBG-173 strain) from a donor mouse having a parasitemia between 5-10%. On days 3, 4, 5 the test compounds were administered bid, spaced 6 h apart, to mice. Smears were made from tail blood on day +6 and twice a week thereafter. The smears were stained with Geimsa and examined microscopically. Parasitemias are reported as the % of the red blood cells that are infected. On day 6 the (suppression of) parasitemias of treated animals may be compared to the parasitemias of infected non-treated controls, but these infected non-treated controls die on days 7-12. Activity was also measured by survival. Full activity is defined as all animals living at day 31. Partial activity is defined as days of increased survival versus the infected non-treated controls.\n^1This in vivo model is a modification of the Thompson Test. For further description see Ager, A. L., Jr. Rodent Malaria Models. In Handbook of Experimental Pharmacology: Antimalarial Drugs. I. 68/1; Peters, W., Richards, W. H. G., Eds.: Springer-Verlag: Berlin, 1984, pp. 231-33."}, "P. berghei": {"tested_on": "P. berghei", "settings": "administered orally to mice infected with P. berghei; cited from earlier work"}, "[6]": {"settings": "in vivo"}}, "note": "Values joined by “and” are separate entries in the source; they are usually repeats but may differ in a detail not shown here. Equal entries are not always repeated. Structures can show the parent of a compound that is named as a salt. Marks after values point to notes of the source that are not given here."}
{"compound": "CC(C)NC(=N)NC(=N)NOCCCOc1ccc(Cl)cc1Cl", "note": "[2,4-Dichloro]", "values": [{"measurement": "Mean values for testes: Left, % body wt", "setting": "[1]", "result": 0.19, "unit": "% body wt"}, {"measurement": "Mean values for testes: Right, % body wt.", "setting": "[1]", "result": 0.20, "unit": "% body wt."}]}
{"compound": "CC(C)NC(=N)NC(=N)NOCCCOc1ccc(F)c(F)c1", "note": "[3,4-Difluoro]", "values": [{"measurement": "Mean values for testes: Left, % body wt", "setting": "[1]", "result": 0.21, "unit": "% body wt"}, {"measurement": "Mean values for testes: Right, % body wt.", "setting": "[1]", "result": 0.23, "unit": "% body wt."}]}
{"compound": "CC(C)NC(=N)NC(=N)NOCCCOc1cc(Cl)c(Cl)cc1Cl", "note": "[PS-15, N-[3-(2,4,5-trichlorophenoxy)propyloxy]-N′-(1-methylethyl)imidodicarbonimidediamide hydrochloride, reference compound]", "values": [{"measurement": "Activity against drug-resistant Plasmodium falciparum", "setting": "[2]; as described by Canfield et al. 1993", "result": "significant activity"}, {"measurement": "In vitro activity relative to comparator", "setting": "[2]", "result": "more active than proguanil"}, {"measurement": "Cross-resistance with other inhibitors of DHFR", "setting": "[2]; versus pyrimethamine and cycloguanil", "result": "not cross-resistant"}, {"measurement": "AVG. DAY OF DEATH", "setting": "Plasmodium berghei; 16 MK/KG/DAY", "result": 15.1, "unit": "days"}, {"measurement": "AVG. DAY OF DEATH", "setting": "Plasmodium berghei; 32 MK/KG/DAY", "result": 15.7, "unit": "days"}, {"measurement": "AVG. DAY OF DEATH", "setting": "Plasmodium berghei; 64 MK/KG/DAY", "result": 17.0, "unit": "days"}, {"measurement": "Activity relative to proguanil or WR99210", "setting": "[3]", "result": "more active than either proquanil or WR99210"}, {"measurement": "Metabolism in vivo", "setting": "[4]", "result": "metabolized in vivo to WR99210"}, {"measurement": "Average days Survival", "setting": "[5]; 16 mg/kg oral, hydrochloride", "result": "14.1 days and 15.1 days and 14.6 days and 13.6 days"}, {"measurement": "6 day Parasetemia", "setting": "[5]; 16 mg/kg oral, hydrochloride", "result": "1.8% and 2.7% and 1.94% and 1.1%"}, {"measurement": "Average days Survival", "setting": "[5]; 32 mg/kg oral, hydrochloride", "result": "15.9 days and 17.8 days and 12.8 days and 21.8 days"}, {"measurement": "6 day Parasetemia", "setting": "[5]; 32 mg/kg oral, hydrochloride", "result": "0% and 0.006% and 0.01%"}, {"measurement": "Average days Survival", "setting": "[5]; 64 mg/kg oral, hydrochloride", "result": ">24.7 days and >31* days"}, {"measurement": "6 day Parasetemia", "setting": "[5]; 64 mg/kg oral", "result": 0, "unit": "%"}, {"measurement": "Mean values for testes: Left, % body wt", "setting": "[1]", "result": 0.21, "unit": "% body wt"}, {"measurement": "Mean values for testes: Right, % body wt.", "setting": "[1]", "result": 0.22, "unit": "% body wt."}, {"measurement": "Testis damage / observable pathology", "setting": "[1]", "result": "Testis damage was found"}, {"measurement": "Activity relative to proguanil", "setting": "P. berghei", "result": "more active"}, {"measurement": "Toxicity relative to proguanil", "setting": "P. berghei", "result": "less toxic than proguanil"}, {"measurement": "Testicular toxicity", "setting": "[6]", "result": "caused testicular toxicity"}]}
{"compound": "CC(C)NC(=N)NC(=N)NOCCCOc1ccc(Cl)c(Cl)c1", "note": "[PS-26, 1-[3-(3,4-dichlorophenoxy)propyloxy]-5-isopropylbiguanide(hemisuccinate)]", "values": [{"measurement": "AVG. DAY OF DEATH", "setting": "Plasmodium berghei; 16 MK/KG/DAY", "result": 16.6, "unit": "days"}, {"measurement": "AVG. DAY OF DEATH", "setting": "Plasmodium berghei; 32 MK/KG/DAY", "result": 15.5, "unit": "days"}, {"measurement": "Average days Survival", "setting": "[5]; 16 mg/kg oral", "result": "15.7 days and 16.6 days and 16.0 days"}, {"measurement": "6 day Parasetemia", "setting": "[5]; 16 mg/kg oral", "result": "0% and 0.006%"}, {"measurement": "Average days Survival", "setting": "[5]; 32 mg/kg oral", "result": ">29.3 days and >31 days"}, {"measurement": "6 day Parasetemia", "setting": "[5]; 32 mg/kg oral", "result": 0, "unit": "%"}, {"measurement": "Average days Survival", "setting": "[5]; 64 mg/kg oral", "result": ">31* days"}, {"measurement": "6 day Parasetemia", "setting": "[5]; 64 mg/kg oral", "result": 0, "unit": "%"}, {"measurement": "Decrease in testis weight/body weight", "setting": "[1]", "result": "no decrease in testis weight/body weight"}, {"measurement": "Mean values for testes: Left, % body wt", "setting": "[1]", "result": 0.29, "unit": "% body wt"}, {"measurement": "Mean values for testes: Right, % body wt.", "setting": "[1]", "result": 0.32, "unit": "% body wt."}, {"measurement": "Testis damage / observable pathology", "setting": "[1]", "result": "minimal to no observable pathology"}]}
{"compound": "CC(C)NC(=N)NC(=N)NOCCCOc1ccc(Cl)cc1", "note": "[PS-33, 1-[3-(4-chlorophenoxy)propyloxy]-5-isopropylbiguanide(hemisuccinate)]", "values": [{"measurement": "AVG. DAY OF DEATH", "setting": "Plasmodium berghei; 16 MK/KG/DAY", "result": 16.0, "unit": "days"}, {"measurement": "AVG. DAY OF DEATH", "setting": "Plasmodium berghei; 32 MK/KG/DAY", "result": 19.5, "unit": "days"}, {"measurement": "AVG. DAY OF DEATH", "setting": "Plasmodium berghei; 64 MK/KG/DAY", "result": 29.0, "unit": "days"}, {"measurement": "Average days Survival", "setting": "[5]; 16 mg/kg oral", "result": "14.1 days and 15.1 days and 14.6 days and 13.6 days"}, {"measurement": "6 day Parasetemia", "setting": "[5]; 16 mg/kg oral", "result": "1.8% and 2.7% and 1.94% and 1.1%"}, {"measurement": "Average days Survival", "setting": "[5]; 32 mg/kg oral", "result": "21.8 days and 15.9 days and 17.8 days and 12.8 days"}, {"measurement": "6 day Parasetemia", "setting": "[5]; 32 mg/kg oral", "result": "0.01% and 0% and 0.006%"}, {"measurement": "Average days Survival", "setting": "[5]; 64 mg/kg oral", "result": ">31* days and >24.7 days"}, {"measurement": "6 day Parasetemia", "setting": "[5]; 64 mg/kg oral", "result": 0, "unit": "%"}, {"measurement": "Decrease in testis weight/body weight", "setting": "[1]", "result": "no decrease in testis weight/body weight"}, {"measurement": "Mean values for testes: Left, % body wt", "setting": "[1]", "result": 0.27, "unit": "% body wt"}, {"measurement": "Mean values for testes: Right, % body wt.", "setting": "[1]", "result": 0.36, "unit": "% body wt."}, {"measurement": "Testis damage / observable pathology", "setting": "[1]", "result": "minimal to no observable pathology"}]}
{"compound": "CC1(C)N=C(N)N=C(N)N1OCCCOc1cc(Cl)c(Cl)cc1Cl", "note": "[WR99210]", "values": [{"measurement": "In vitro activity relative to comparator", "setting": "[2]", "result": "ten thousand times more active than the proquanil metabolite cycloguanil"}]}
